Assay results: ChEMBL document CHEMBL1135447, “Design and synthesis of tricyclic compounds with enone functionalities in rings A and C: a novel class of highly active inhibitors of nitric oxide production in mouse macrophages” (J Med Chem, 2002)

Organism: Mus musculus
Assay: Inhibitory activity against nitric oxide production induced by interferon-gamma (IFN-gamma) in mouse macrophages
Type: functional
Conditions: not given

Point of comparison: `CC1(C)C(=O)C(C#N)=C[C@]2(C)C3=CC(=O)C=C[C@]3(C)CC[C@@H]12` (stereo in doubt; (+)-6), IC50 58 nM. Against it:
- CC1(C)C(=O)C(C#N)=C[C@]2(C)C3=CC(=O)C=C[C@]3(C)CC[C@@H]12 (stereo in doubt; (-)-6) — within 1.5-fold, 64 nM

Same assay, conditions: Mus musculus

Point of comparison: `CC1(C)C(=O)C(C#N)=C[C@]2(C)C3=CC(=O)C=C[C@]3(C)CC[C@@H]12` (racemic), IC50 61 nM. Against it:
- CC1(C)C(=O)C(C#N)=C[C@]2(C)C3=CC(=O)C(C#N)=C[C@]3(C)CC[C@@H]12 (racemic) — 29-fold lower, 2.1 nM
- CC1(C)CC[C@]2(C(=O)O)CC[C@]3(C)C(=CC[C@@H]4[C@@]5(C)CC[C@H](O)C(C)(C)[C@@H]5CC[C@]43C)[C@@H]2C1 [OLEANOLIC_ACID] — higher, > 40000 nM
- CC1(C)CC[C@]2(C(=O)O)CC[C@]3(C)[C@H](C(=O)C=C4[C@@]5(C)C=C(C#N)C(=O)C(C)(C)[C@@H]5CC[C@]43C)[C@@H]2C1 [BARDOXOLONE] — 120-fold lower, 0.5 nM
- COC(=O)C1=C[C@]2(C)CC[C@H]3C(C)(C)C(=O)C(C#N)=C[C@]3(C)C2=CC1=O (racemic) — within 1.5-fold, 91 nM
- CC1(C)C(=O)C(C#N)=C[C@]2(C)C3=CC(=O)C(C(N)=O)=C[C@]3(C)CC[C@@H]12 (racemic) — the same, 61 nM
- CC(=O)O[C@@H]1CCC=C2[C@@]3(C)C=C(C#N)C(=O)C(C)(C)[C@@H]3CC[C@]21C (racemic) — 7.9-fold higher, 480 nM
- CC1(C)C(=O)C(C#N)=C[C@]2(C)C3=CC(=O)C[C@@H](O)[C@]3(C)CC[C@@H]12 (racemic) — within 1.5-fold, 75 nM
- CC(=O)O[C@@H]1CC(=O)C=C2[C@@]3(C)C=C(C#N)C(=O)C(C)(C)[C@@H]3CC[C@]21C (racemic) — within 1.5-fold, 53 nM
- CC1(C)C(=O)C(C#N)=C[C@]2(C)C3=CCC[C@@H](O)[C@]3(C)CC[C@@H]12 (racemic) — 5.1-fold higher, 310 nM
- CC1(C)C(=O)C(C#N)=C[C@]2(C)C3=CC(=O)C(C(=O)O)=C[C@]3(C)CC[C@@H]12 (racemic) — 26-fold higher, 1600 nM
